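48-hour exposure; five concentrations; linearly interpolated endpoints. GI50: concentration for 50% inhibition of growth.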 Activity calls are given as the source filed them. No stated cut-off is given here; in the data, active = GI50 up to about 1.1 µM and inactive = higher.
Tests used:
Assay in all cases: NCI tumour cell line growth inhibition, 48 h
MDA-MB-231 = test system: MDA-MB-231
SK-MEL-5 = test system: SK-MEL-5
MDA-MB-435 = test system: MDA-MB-435
M14 = test system: M14
RPMI-8226 = test system: RPMI-8226
NCI-H23 = test system: NCI-H23
SF-539 = test system: SF-539
SN12C = test system: SN12C
TK-10 = test system: TK-10
HCC 2998 = test system: HCC 2998
PC-3 = test system: PC-3
SNB-75 = test system: SNB-75
SK-MEL-28 = test system: SK-MEL-28
HCT-116 = test system: HCT-116
EKVX = test system: EKVX
T47D = test system: T47D
A549 = test system: A549
SNB-19 = test system: SNB-19
NCI-H226 = test system: NCI-H226
Malme-3M = test system: Malme-3M
MCF7 = test system: MCF7
NCI/ADR-RES = test system: NCI/ADR-RES
SF-295 = test system: SF-295
RXF 393 = test system: RXF 393
CAKI-1 = test system: CAKI-1
OVCAR-4 = test system: OVCAR-4
HCT-15 = test system: HCT-15
IGROV-1 = test system: IGROV-1
SW-620 = test system: SW-620
SK-OV-3 = test system: SK-OV-3
LOX IMVI = test system: LOX IMVI
UACC-257 = test system: UACC-257
KM12 = test system: KM12
A498 = test system: A498
CCRF-CEM = test system: CCRF-CEM
COLO 205 = test system: COLO 205
OVCAR-8 = test system: OVCAR-8
NCI-H522 = test system: NCI-H522
MDA-N = test system: MDA-N
OVCAR-5 = test system: OVCAR-5
SK-MEL-2 = test system: SK-MEL-2
UO-31 = test system: UO-31
NCI-H460 = test system: NCI-H460
BT-549 = test system: BT-549
786-0 = test system: 786-0
ACHN = test system: ACHN
SF-268 = test system: SF-268
HOP-92 = test system: HOP-92
HL-60 = test system: HL-60
SR = test system: SR
K562 = test system: K562
MOLT-4 = test system: MOLT-4
U-251 = test system: U-251
DU-145 = test system: DU-145

## CC(C)=C[C@H]1CCC2(OCCO2)[C@]1(C)CO
MDA-MB-231
  GI50: > 100 µM (inactive)
SK-MEL-5
  GI50: > 100 µM (inactive)
MDA-MB-435
  GI50: > 100 µM (inactive)
M14
  GI50: > 100 µM (inactive)
RPMI-8226
  GI50: > 100 µM (inactive)
NCI-H23
  GI50: > 100 µM (inactive)
SF-539
  GI50: > 100 µM (inactive)
SN12C
  GI50: > 100 µM (inactive)
TK-10
  GI50: > 100 µM (inactive)
HCC 2998
  GI50: > 100 µM (inactive)
PC-3
  GI50: > 100 µM (inactive)
SNB-75
  GI50: > 100 µM (inactive)
SK-MEL-28
  GI50: > 100 µM (inactive)
HCT-116
  GI50: > 100 µM (inactive)
EKVX
  GI50: 58.7 µM (inactive)
T47D
  GI50: > 100 µM (inactive)
A549
  GI50: > 100 µM (inactive)
SNB-19
  GI50: > 100 µM (inactive)
NCI-H226
  GI50: > 100 µM (inactive)
Malme-3M
  GI50: > 100 µM (inactive)
MCF7
  GI50: > 100 µM (inactive)
NCI/ADR-RES
  GI50: > 100 µM (inactive)
SF-295
  GI50: > 100 µM (inactive)
RXF 393
  GI50: > 100 µM (inactive)
CAKI-1
  GI50: > 100 µM (inactive)
OVCAR-4
  GI50: > 100 µM (inactive)
HCT-15
  GI50: > 100 µM
IGROV-1
  GI50: > 100 µM (inactive)
SW-620
  GI50: > 100 µM (inactive)
SK-OV-3
  GI50: > 100 µM (inactive)
LOX IMVI
  GI50: > 100 µM (inactive)
UACC-257
  GI50: > 100 µM (inactive)
KM12
  GI50: > 100 µM (inactive)
A498
  GI50: > 100 µM (inactive)
CCRF-CEM
  GI50: > 100 µM (inactive)
COLO 205
  GI50: > 100 µM (inactive)
OVCAR-8
  GI50: > 100 µM (inactive)
NCI-H522
  GI50: > 100 µM (inactive)
MDA-N
  GI50: > 100 µM (inactive)
OVCAR-5
  GI50: > 100 µM (inactive)
SK-MEL-2
  GI50: > 100 µM (inactive)
UO-31
  GI50: > 100 µM (inactive)
NCI-H460
  GI50: > 100 µM (inactive)
BT-549
  GI50: > 100 µM (inactive)
786-0
  GI50: > 100 µM (inactive)
ACHN
  GI50: > 100 µM (inactive)
SF-268
  GI50: > 100 µM (inactive)

## C(=C\c1ccc(-c2cn3cc(/C=C/C=N/NC4=NCCN4)ccc3n2)cc1)/C=N/NC1=NCCN1
MDA-MB-435
  GI50: 1.29 µM (inactive)
RPMI-8226
  GI50: 0.0427 µM (active)
NCI-H23
  GI50: 1.72 µM (inactive)
SF-539
  GI50: 1.57 µM (inactive)
TK-10
  GI50: 5.08 µM (inactive)
HCC 2998
  GI50: 1.19 µM (inactive)
HOP-92
  GI50: 1.14 µM (inactive)
PC-3
  GI50: 1.47 µM (inactive)
HL-60
  GI50: 368 nM (active)
SNB-75
  GI50: 1.31 µM (inactive)
SK-MEL-28
  GI50: 1.84 µM (inactive)
HCT-116
  GI50: 0.589 µM (active)
EKVX
  GI50: 1.6 µM (inactive)
A549
  GI50: 0.294 µM (active)
SNB-19
  GI50: 1.27 µM (inactive)
NCI-H226
  GI50: 1.5 µM (inactive)
SR
  GI50: 1.04 µM (active)
NCI/ADR-RES
  GI50: > 25.8 µM (inactive)
K562
  GI50: 461 nM (active)
RXF 393
  GI50: 1.51 µM (inactive)
CAKI-1
  GI50: 1.3 µM (inactive)
MOLT-4
  GI50: 2.07 µM (inactive)
HCT-15
  GI50: 3.72 µM
IGROV-1
  GI50: 2.05 µM (inactive)
SW-620
  GI50: 0.083 µM (active)
U-251
  GI50: 399 nM (active)
UACC-257
  GI50: 0.887 µM (active)
KM12
  GI50: 2 µM (inactive)
DU-145
  GI50: 2 µM (inactive)
CCRF-CEM
  GI50: 1.66 µM (inactive)
OVCAR-8
  GI50: 1.27 µM (inactive)
SK-MEL-2
  GI50: 1.35 µM (inactive)
UO-31
  GI50: 3.09 µM (inactive)
NCI-H460
  GI50: 0.514 µM (active)
786-0
  GI50: 1.32 µM (inactive)
ACHN
  GI50: 1.36 µM (inactive)

Source: ChEMBL document CHEMBL1201862, “PubChem BioAssay data set” (2004)
